# Assays:
# [1] = test system: Akt (Thr308, Ser473) and GSK3β (Ser9) phosphorylation; type: cell-based, Human; details: serum-starved HEK293, 20 min drug then 50 ng/ml IGF-1 10 min
# [2] = test system: myr-HA-asAkt1-KD or myr-HA-asAkt2-KD (Thr308, Ser473) phosphorylation; assay: HEK293 cells expressing kinase dead; type: cell-based, Human; details: 30 min, 2.5 µM PrINZ or 10 µM 3-IB-PP1
# [3] = test system: HA-asAkt1 (Thr308, Ser473) phosphorylation; assay: HEK293 cells transfected with HA-asAkt1, immunoblotting; type: cell-based, Human; details: 30 min, serially diluted inhibitor
# [4] = test system: GSK3β (Ser9) phosphorylation; assay: HEK293 cells transfected with myr-HA-asAkt1, immunoblotting; type: cell-based, Human; details: myr-HA-asAkt1, 30 min, various concentrations
# [5] = test system: PC-3 tumor; details: PC-3 xenograft; cited from earlier work
# [6] = test system: MiaPaCa-2 tumor; details: MiaPaCa-2 xenograft; cited from earlier work
# [7] = test system: 3T3-Akt1 tumor; details: 3T3-Akt1 xenograft; cited from earlier work
# [8] = test system: Akt membrane localization; assay: Immunofluorescence of Akt in untransfected HEK293 cells; type: cell-based, Human
# [9] = test system: HA-asAkt1/2/3 (Thr308, Ser473) phosphorylation; type: cell-based, Human; details: then 2.5 µM PrINZ 30 min; for hyperphosphorylation induced by PrINZ (Thr308 and Ser473): pre-treatment 10 min; for PrINZ induced Thr308 phosphorylation / PrINZ induced hyperphosphorylation at Ser473: pre-treatment 10 min (10 µM BX-795, 2.5 µM PP242)
# [10] = test system: 220 purified kinases; assay: SelectScreen profiling, whole panel; type: biochemical; details: 1 µM
# [11] = test system: Akt (Thr308) and rpS6 (Ser240/244) phosphorylation in L6 cells; assay: Insulin stimulated L6 cells, immunoblotting; type: cell-based; details: serum-starved, 20 min drug then 100 nM insulin 10 min
# [12] = test system: Akt; details: cited from earlier work
# [13] = test system: myr-HA-asAkt1 (Thr308, Ser473) phosphorylation; type: cell-based, Human; details: 2.5 µM PIK90 10 min, then 2.5 µM PrINZ 30 min
# [14] = molecular target: myr-HA-asAkt2 (Homo sapiens, UniProt P31751, M229G); assay: In vitro IP kinase assay for Akt variants; type: biochemical; details: myr-HA-asAkt2 expressed in HEK293T cells, immunoprecipitated; 50 µM ATP
# [15] = molecular target: myr-HA-asAkt3 (Homo sapiens, UniProt Q9Y243, M225G); assay: In vitro IP kinase assay for Akt variants; type: biochemical; details: myr-HA-asAkt3 expressed in HEK293T cells, immunoprecipitated; 50 µM ATP
# [16] = molecular target: myr-HA-asAkt1 (Homo sapiens, UniProt P31749, M227G); assay: In vitro IP kinase assay for Akt variants; type: biochemical; details: myr-HA-asAkt1 expressed in HEK293T cells, immunoprecipitated; 50 µM ATP
# [17] = test system: HA-asAkt1 and flag-wtAkt1 (Thr308, Ser473) phosphorylation; type: cell-based, Human; details: 30 min, various concentrations
# [18] = molecular target: myr-HA-wtAkt3 (Homo sapiens, UniProt Q9Y243); assay: In vitro IP kinase assay for Akt variants; type: biochemical; details: myr-HA-wtAkt3 expressed in HEK293T cells, immunoprecipitated; 50 µM ATP
# [19] = molecular target: myr-HA-wtAkt2 (Homo sapiens, UniProt P31751); assay: In vitro IP kinase assay for Akt variants; type: biochemical; details: myr-HA-wtAkt2 expressed in HEK293T cells, immunoprecipitated; 50 µM ATP
# [20] = molecular target: myr-HA-wtAkt1 (Homo sapiens, UniProt P31749); assay: In vitro IP kinase assay for Akt variants; type: biochemical; details: myr-HA-wtAkt1 expressed in HEK293T cells, immunoprecipitated; 50 µM ATP
# Sequence of myr-HA-wtAkt1 (P31749 whole entry): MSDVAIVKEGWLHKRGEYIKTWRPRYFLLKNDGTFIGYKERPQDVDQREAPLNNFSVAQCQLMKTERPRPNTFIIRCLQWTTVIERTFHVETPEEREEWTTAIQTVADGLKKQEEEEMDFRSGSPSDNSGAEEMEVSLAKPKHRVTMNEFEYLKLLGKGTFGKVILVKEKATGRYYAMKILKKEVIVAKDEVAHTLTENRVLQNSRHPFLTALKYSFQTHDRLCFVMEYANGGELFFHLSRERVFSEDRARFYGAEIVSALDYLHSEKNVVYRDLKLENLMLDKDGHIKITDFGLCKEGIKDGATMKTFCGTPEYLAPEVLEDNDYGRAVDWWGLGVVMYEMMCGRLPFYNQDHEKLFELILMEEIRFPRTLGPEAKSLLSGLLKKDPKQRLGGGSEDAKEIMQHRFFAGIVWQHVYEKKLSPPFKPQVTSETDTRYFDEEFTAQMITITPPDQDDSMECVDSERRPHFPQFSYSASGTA
# Sequence of myr-HA-wtAkt3 (Q9Y243 whole entry): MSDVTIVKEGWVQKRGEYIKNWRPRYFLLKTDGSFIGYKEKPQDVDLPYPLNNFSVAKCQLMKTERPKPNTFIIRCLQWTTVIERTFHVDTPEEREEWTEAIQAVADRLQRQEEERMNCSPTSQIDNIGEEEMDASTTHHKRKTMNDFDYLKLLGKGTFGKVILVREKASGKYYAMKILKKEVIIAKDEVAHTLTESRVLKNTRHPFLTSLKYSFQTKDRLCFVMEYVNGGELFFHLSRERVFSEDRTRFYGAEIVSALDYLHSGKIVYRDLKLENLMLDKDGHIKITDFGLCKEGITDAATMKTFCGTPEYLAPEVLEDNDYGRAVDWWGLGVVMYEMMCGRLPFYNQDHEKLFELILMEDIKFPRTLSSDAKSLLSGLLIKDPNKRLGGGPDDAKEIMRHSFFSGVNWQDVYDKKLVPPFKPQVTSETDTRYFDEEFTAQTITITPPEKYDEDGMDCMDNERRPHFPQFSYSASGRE
# Sequence of myr-HA-asAkt3 (Q9Y243 whole entry M225G): as the sequence (Q9Y243 whole entry) above, with M225G counted along it
# Sequence of myr-HA-wtAkt2 (P31751 whole entry): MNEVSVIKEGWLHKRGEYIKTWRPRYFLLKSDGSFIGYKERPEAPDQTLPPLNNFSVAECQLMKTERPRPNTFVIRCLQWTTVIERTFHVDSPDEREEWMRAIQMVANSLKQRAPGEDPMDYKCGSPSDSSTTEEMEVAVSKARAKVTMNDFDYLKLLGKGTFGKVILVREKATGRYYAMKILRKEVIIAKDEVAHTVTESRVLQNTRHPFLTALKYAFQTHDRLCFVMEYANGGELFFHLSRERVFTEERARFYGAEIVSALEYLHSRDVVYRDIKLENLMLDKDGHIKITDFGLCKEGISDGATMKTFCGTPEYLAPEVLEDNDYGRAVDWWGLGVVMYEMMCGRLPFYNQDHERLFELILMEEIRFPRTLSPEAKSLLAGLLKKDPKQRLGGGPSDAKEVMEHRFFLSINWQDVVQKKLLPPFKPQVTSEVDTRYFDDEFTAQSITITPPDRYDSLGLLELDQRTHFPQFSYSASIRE
# Sequence of myr-HA-asAkt1 (P31749 whole entry M227G): as the sequence (P31749 whole entry) above, with M227G counted along it
# Sequence of myr-HA-asAkt2 (P31751 whole entry M229G): as the sequence (P31751 whole entry) above, with M229G counted along it
structure (smiles),measurement,setting,value
CC(C)(C)n1nc(Cc2cccc(I)c2)c2c(N)ncnc21 [3-IB-PP1],Akt phosphorylation at Thr308 and Ser473,[1],unperturbed
same,phosphorylation on GSK3β at Ser9,[1],unperturbed
same,hyperphosphorylation on Thr308 and Ser473 of kinase dead mutants,[2],induced striking hyperphosphorylation
same,HA-asAkt1 hyperphosphorylation,[3],induced
same,phosphorylation level of Ser9 on GSK3β,[4],decreased
Cc1n[nH]c2ccc(-c3cncc(OC[C@@H](N)Cc4c[nH]c5ccccc45)c3)cc12 [A-443654],tumor growth,[5],inhibit the growth
same,Akt phosphorylation at Thr308 and Ser473,[1],induced
same,phosphorylation on GSK3β at Ser9,[1],potently inhibited
same,tumor growth,[6],inhibit the growth
same,tumor growth,[7],inhibit the growth
same,location of Akt,"[8]; 2.5 µM, 15 min, no growth factor stimulation",translocation of Akt to the plasma membrane
"O=c1[nH]c2ccccc2n1C1CCN(Cc2ccc(-c3nc4cc5nc[nH]c5cc4nc3-c3ccccc3)cc2)CC1 [Akti-1,2]",hyperphosphorylation induced by PrINZ (Thr308 and Ser473),[9],dose-dependent inhibition
O=C(NCCCNc1nc(Nc2cccc(NC(=O)N3CCCC3)c2)ncc1I)c1cccs1 [BX-795],selectivity in panel of 220 kinases,[10],selective for only PDK1 within the PI3K-mTORC1 pathway
same,PrINZ induced Thr308 phosphorylation,[9],significant decrease
same,PrINZ induced hyperphosphorylation at Ser473,[9],reduced
COc1ccccc1N1CCN(c2ncnc3[nH]nc(Br)c23)CC1 [DG2],Akt phosphorylation at Thr308 and Ser473,[11],does not induce
"CCn1c(-c2nonc2N)nc2c(C#CC(C)(C)O)ncc(OC[C@H]3CCCNC3)c21 [GSK690693, 4-(2-(4-amino-1,2,5-oxadiazol-3-yl)-1-ethyl-7-{[(3S)-3-piperidinylmethyl]oxy}-1H-imidazo[4,5-c]pyridin-4-yl)-2-methyl-3-butyn-2-ol]",Akt hyperphosphorylation,[12],induces Akt hyperphosphorylation
COc1ccc2c(c1OC)N=C(NC(=O)c1cccnc1)N1CCN=C21 [PIK90],hyperphosphorylation on myr-HA-asAkt1,[13],not inhibited
same,hyperphosphorylation induced by PrINZ (Thr308 and Ser473),[9],significantly attenuated
same,A-443654 induced translocation and Thr308 phosphorylation of Akt,[8]; 2.5 µM PIK90 10 min before 2.5 µM A-443654 15 min,inhibited
CC(C)n1nc(-c2cc3cc(O)ccc3[nH]2)c2c(N)ncnc21 [PP242],PrINZ induced Thr308 phosphorylation,[9],unaffected
same,PrINZ induced hyperphosphorylation at Ser473,[9],completely inhibited
CCCc1cc(-c2cncc(OC[C@@H](N)Cc3c[nH]c4ccccc34)c2)cc2c(C)n[nH]c12 [PrINZ],IC50 (nM) asAkt2,[14],low nanomolar range
same,IC50 (nM) asAkt3,[15],low nanomolar range
same,IC50 (nM) asAkt1,[16],low nanomolar range
same,Akt phosphorylation at Thr308 and Ser473,[1],unperturbed
same,phosphorylation on GSK3β at Ser9,[1],unperturbed
same,hyperphosphorylation on Thr308 and Ser473 of kinase dead mutants,[2],induced striking hyperphosphorylation
same,Thr308 and Ser473 phosphorylation after immunoprecipitation,[17],induced only on HA-asAkt1
same,HA-asAkt1 hyperphosphorylation,[3],induced
same,phosphorylation level of Ser9 on GSK3β,[4],decreased
same,IC50 (nM) wtAkt3,[18],did not inhibit
same,IC50 (nM) wtAkt2,[19],did not inhibit
same,IC50 (nM) wtAkt1,[20],did not inhibit

# Reference: article PMC2783590 (Nature chemical biology, 2009)
